Patent publication US10441568B2, “Nitroxide radicals for the treatment of diseases of the respiratory tract” (priority 2015, dated 2019)

How the values were obtained:
IL-13 = IL-13 level in OVA asthma model; type: in vivo, BALB/c mice; details: for IL-13 level: lung tissue (table title)
Protocol: All experimental procedures were carried out in accordance with the NIH Guidelines for the Care and Use of Laboratory Animals. Specific pathogen-free (SPF) male BALB/c mice (6-7 weeks of age, 18-22 grams), routinely screened serologically for relevant respiratory pathogens, were maintained in an animal housing facility for 1 week before use and given access to food and water ad libitum. Animals were randomly assigned to the indicated experimental groups, and sensitized with two intraperitoneal (IP) injections (20 μg ovalbumin (OVA) emulsified in 2 mg aluminum hydroxide (an adjuvant) in 200 μl phosphate buffer saline (PBS), pH 7.4), on days 1 and 10.
After another week, the animals were challenged by exposure to ovalbumin (OVA) aerosol (1%, w/v, in PBS) for 30 minutes each day on days 17, 18 and 19, in order to elicit an inflammatory reaction in the lungs characterized by airway hyper-responsiveness (AHR), an influx of inflammatory cells (particularly eosinophils), and increased pulmonary levels of various cytokines and transforming growth factors, protein nitration and lipid peroxidation.
(§1) Bronchoalveolar lavage (BAL) fluid (also referred to herein as “BALf”) and bronchial submucosal inflammation are characteristic features of asthma. Mice were euthanized with an overdose of 50 mg/kg pentobarbital and ice-cold phosphate buffer saline (PBS) (0.6 ml) was instilled into the lungs. BAL fluid was obtained by three aspirations via tracheal cannulation, centrifuged, and the supernatant collected and stored at −70° C. Cell pellets were re-suspended in PBS and 100 μl aliquots placed onto slides and centrifuged (200 g, 4° C., 10 minutes) in a cytospin machine. Induction of oxidative stress was evaluated using a 2′,7′-dichlorofluorescein fluorescence assay, and total IgE, IgG2a, panel of cytokines, transforming growth factors, collagen, protein nitration and lipid peroxidation were measured using commercial kits according to the manufacturer's recommendations. A Sircol™ collagen assay kit was obtained from Biocolor Life Sciences Assays, a protein nitration assay kit was obtained from Abcam, and other assay kits were obtained from PeproTech Asia.
The efficacy of oral administration of 3-CP (1 weight percent in chow) during the sensitization period and/or challenge period was then compared to IP injection (˜300 mg/kg, 0.5 hour before the OVA challenge) or intranasal instillation (˜150 mg/kg, 0.5 hour before the OVA and 6 hours later) of 3-CP, as well as to dexamethasone treatment (1 mg/kg, 3 daily IP injections, 0.5 hour prior to the challenge with OVA aerosol).
In order to assess the effect of 3-CP on inflammatory signaling pathways, […] to procedures described hereinabove, upon oral, intranasal or IP administration of 3-CP.

3-nitrotyrosine (3-NT) = experiment: Protein nitration (3-nitrotyrosine) in lung homogenates, OVA asthma model; type: in vivo, mice; details: 3-CP via all tested modes of delivery (oral, IP, IN), FIG. 8
Protocol: as §1
In order to determine whether 3-CP reduces protein nitration, a form of cell damage induced by peroxynitrite (an anion generally believed to be formed in vivo by a reaction of superoxide radical and nitric oxide), lung homogenates were assayed for 3-nitrotyrosine (3-NT) levels.

[1] = test system: mice with OVA-induced chronic asthma; experiment: Inflammatory cell counts in BAL fluid, severe (chronic) asthma model; type: in vivo
Protocol: In a longer (chronic) murine model, mice were challenged 3 times a week for 4-5 weeks.
Bronchoalveolar lavage (BAL) fluid (also referred to herein as “BALf”) and bronchial submucosal inflammation are characteristic features of asthma. Mice were euthanized with an overdose of 50 mg/kg pentobarbital and ice-cold phosphate buffer saline (PBS) (0.6 ml) was instilled into the lungs. BAL fluid was obtained by three aspirations via tracheal cannulation, centrifuged, and the supernatant collected and stored at −70° C. Cell pellets were re-suspended in PBS and 100 μl aliquots placed onto slides and centrifuged (200 g, 4° C., 10 minutes) in a cytospin machine. Induction of oxidative stress was evaluated using a 2′,7′-dichlorofluorescein fluorescence assay, and total IgE, IgG2a, panel of cytokines, transforming growth factors, collagen, protein nitration and lipid peroxidation were measured using commercial kits according to the manufacturer's recommendations. […]
3-CP was administered orally (1 weight percent in chow) during the entire experiment, and dexamethasone (Dex) was administered via IP injection (1 mg/kg) one hour before each challenge. Inflammatory cell counts and pulmonary collagen content were then evaluated according to procedures described hereinabove, in order to assess effects on inflammation and remodeling, respectively.

Q: Which results are given for `CC1(C)CC(C(N)=O)C(C)(C)N1[O]` (centres unmarked) [3-CP, 3-Carbamoyl-2,2,5,5-tetramethyl-pyrrolidin-1-oxyl]?
A: reducing IL-13 level, oral 3-CP compared with intranasal 3-CP and IP dexamethasone (IL-13; FIG. 7D and Table 1): more effective than intranasal instillation of 3-CP and IP injection of dexamethasone; IL-13 level (IL-13; OVA IN-C: 3-CP intranasal during challenge): 1.99 ng/mg; IL-13 level (IL-13; OVA IP-C: 3-CP intraperitoneal during challenge): 1.38 ng/mg; IL-13 level (IL-13; OVA oral-C: 3-CP oral during challenge): 2.01 ng/mg; IL-13 level (IL-13; OVA oral-S&C: 3-CP oral during sensitization and challenge): 1.67 ng/mg; IL-13 level (IL-13; OVA oral-S: 3-CP oral during sensitization): 2.20 ng/mg; effect on OVA-induced increase in the level of IL-13 (IL-13; lung tissue, FIG. 7D and Table 1): inhibited; modulating IL-13 level, oral compared with IP 3-CP (IL-13; oral administration vs IP injection): consistently more effective than IP injection of 3-CP; effect on pulmonary 3-NT levels (3-nitrotyrosine (3-NT)): markedly suppressed 3-NT levels as compared to the vehicle control as well as treatment with dexamethasone; effect on inflammatory cell counts in BAL fluid ([1]; 3-CP oral 1 weight percent in chow during entire experiment, 4 weeks OVA challenge, FIGS. 15A and 15B): reduced inflammatory cell counts, and especially eosinophil counts; reducing BAL inflammatory cell counts, 3-CP compared with dexamethasone ([1]; 3-CP oral, dexamethasone 1 mg/kg IP before each challenge): at least as effective as dexamethasone
